Source: patent publication US20240067657A1, “AMIDO-SUBSTITUTED PYRIDYL COMPOUNDS AND METHODS OF USE THEREOF FOR THE TREATMENT OF HERPESVIRUSES” (Merck Sharp & Dohme LLC, priority 2020, published 2024)
Read-outs that look alike come from different tables or passages of the source.

Columns and labels:
[1] = test system: VZV in MeWo or MRC5 cells; experiment: Viral qPCR assay VZV (V0/V1, V2/V3), EC50; type: cell-based
In short: (§1)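 Infected cells added to compounds (10-point 3-fold series), ~72 h at 37 °C, then lysed; viral genomes by TaqMan qPCR against plasmid standard, normalized to PPIA in V0/V1 only, EC50 from 4-parameter fit. HCMV AD169, 0.05-0.1 pfu/cell, ± 50% FBS; VZV 0.04-0.1 pfu/cell; HSV-1 F 0.0005-0.004 pfu/cell.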

[2] = test system: HSV-1 Strain F in Vero or MRC5 cells; experiment: Viral qPCR assay HSV-1 (V0/V1, V2/V3), EC50; type: cell-based
In short: as §1

[3] = test system: HCMV Strain AD169 in MRC-5 cells; experiment: Viral qPCR assay HCMV (V0/V1, V2/V3), EC50; type: cell-based
In short: as §1

[4] = molecular target: T1, varicella zoster virus DNA polymerase (Varicella-zoster virus, UniProt P09252); experiment: VZV polymerase assay (AlphaLISA, IC50); type: biochemical; settings: polymerase assay of Example 190
T1 construct: made in house; host or cells: SF21 insect cells (baculovirus vector)
In short: (§2)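 Baculovirus-expressed polymerase (HCMV 0.2 nM, VZV 0.4 nM final) preincubated 30 min at room temperature with compound in pH 7.5 HEPES buffer; reaction started with 1.6 nM DIG-primer/template and nM dNTPs including biotin-dUTP, run 60 min at 37° C. Incorporation detected by AlphaLISA; IC50 from 4-parameter fit.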

[5] = molecular target: T2, Human cytomegalovirus DNA polymerase (Human cytomegalovirus, UniProt P08546); experiment: HCMV polymerase assay (AlphaLISA, IC50); type: biochemical; settings: polymerase assay of Example 190
T2 construct: made in house; host or cells: SF21 insect cells (baculovirus vector)
In short: as §2

[6] = Human alphaherpesvirus 3, MRC5, MRC5 cells, 10%, read-out: VZV Cell (EC50) MRC5 10%
[7] = Human alphaherpesvirus 1, MRC5, MRC5 cells, 10%, read-out: HSV1 Cell (EC50) MRC5 10%
[8] = Human betaherpesvirus 5, AD169, MRC5, viral qPCR assay of Example 191, read-out: HCMV Cell (EC50)
[9] = Human alphaherpesvirus 1, Vero, VERO cells, 10%, read-out: HSV1 Cell (EC50) VERO 10%
[10] = Human alphaherpesvirus 3, MeWo, MEWO cells, 10%, read-out: VZV Cell (EC50) MEWO 10%

T1 sequence (P09252 whole entry): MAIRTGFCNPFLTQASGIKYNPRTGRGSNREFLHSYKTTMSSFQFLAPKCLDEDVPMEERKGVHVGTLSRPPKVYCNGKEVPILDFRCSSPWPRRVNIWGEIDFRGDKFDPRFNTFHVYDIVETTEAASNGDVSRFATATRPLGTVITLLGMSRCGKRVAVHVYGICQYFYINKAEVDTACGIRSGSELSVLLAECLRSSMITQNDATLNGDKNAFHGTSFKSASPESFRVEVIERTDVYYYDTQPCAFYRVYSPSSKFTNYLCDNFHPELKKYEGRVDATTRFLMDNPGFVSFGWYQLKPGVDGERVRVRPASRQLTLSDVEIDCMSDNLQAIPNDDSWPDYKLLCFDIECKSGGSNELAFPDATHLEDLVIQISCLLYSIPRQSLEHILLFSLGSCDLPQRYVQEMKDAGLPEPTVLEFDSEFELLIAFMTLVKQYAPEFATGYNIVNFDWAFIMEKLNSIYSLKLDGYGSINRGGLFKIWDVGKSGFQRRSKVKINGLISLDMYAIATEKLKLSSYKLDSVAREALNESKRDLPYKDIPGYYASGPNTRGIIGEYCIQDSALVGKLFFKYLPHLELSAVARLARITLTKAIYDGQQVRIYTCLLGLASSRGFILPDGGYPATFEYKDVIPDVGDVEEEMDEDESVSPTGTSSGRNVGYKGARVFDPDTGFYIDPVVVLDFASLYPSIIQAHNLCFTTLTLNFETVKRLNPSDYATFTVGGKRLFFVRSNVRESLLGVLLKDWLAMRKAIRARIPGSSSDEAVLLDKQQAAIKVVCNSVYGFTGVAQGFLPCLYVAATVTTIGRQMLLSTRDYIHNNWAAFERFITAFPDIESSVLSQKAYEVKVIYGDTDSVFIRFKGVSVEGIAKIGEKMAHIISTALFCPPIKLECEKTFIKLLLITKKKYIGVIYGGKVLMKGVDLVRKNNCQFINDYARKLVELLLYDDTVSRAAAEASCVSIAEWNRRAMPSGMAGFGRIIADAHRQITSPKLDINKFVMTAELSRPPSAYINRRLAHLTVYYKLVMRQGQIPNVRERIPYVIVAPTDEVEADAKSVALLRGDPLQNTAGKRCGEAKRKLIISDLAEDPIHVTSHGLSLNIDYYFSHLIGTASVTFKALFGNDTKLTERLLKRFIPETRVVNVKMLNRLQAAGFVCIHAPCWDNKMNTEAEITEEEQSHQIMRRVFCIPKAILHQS
T2 sequence (P08546 whole entry): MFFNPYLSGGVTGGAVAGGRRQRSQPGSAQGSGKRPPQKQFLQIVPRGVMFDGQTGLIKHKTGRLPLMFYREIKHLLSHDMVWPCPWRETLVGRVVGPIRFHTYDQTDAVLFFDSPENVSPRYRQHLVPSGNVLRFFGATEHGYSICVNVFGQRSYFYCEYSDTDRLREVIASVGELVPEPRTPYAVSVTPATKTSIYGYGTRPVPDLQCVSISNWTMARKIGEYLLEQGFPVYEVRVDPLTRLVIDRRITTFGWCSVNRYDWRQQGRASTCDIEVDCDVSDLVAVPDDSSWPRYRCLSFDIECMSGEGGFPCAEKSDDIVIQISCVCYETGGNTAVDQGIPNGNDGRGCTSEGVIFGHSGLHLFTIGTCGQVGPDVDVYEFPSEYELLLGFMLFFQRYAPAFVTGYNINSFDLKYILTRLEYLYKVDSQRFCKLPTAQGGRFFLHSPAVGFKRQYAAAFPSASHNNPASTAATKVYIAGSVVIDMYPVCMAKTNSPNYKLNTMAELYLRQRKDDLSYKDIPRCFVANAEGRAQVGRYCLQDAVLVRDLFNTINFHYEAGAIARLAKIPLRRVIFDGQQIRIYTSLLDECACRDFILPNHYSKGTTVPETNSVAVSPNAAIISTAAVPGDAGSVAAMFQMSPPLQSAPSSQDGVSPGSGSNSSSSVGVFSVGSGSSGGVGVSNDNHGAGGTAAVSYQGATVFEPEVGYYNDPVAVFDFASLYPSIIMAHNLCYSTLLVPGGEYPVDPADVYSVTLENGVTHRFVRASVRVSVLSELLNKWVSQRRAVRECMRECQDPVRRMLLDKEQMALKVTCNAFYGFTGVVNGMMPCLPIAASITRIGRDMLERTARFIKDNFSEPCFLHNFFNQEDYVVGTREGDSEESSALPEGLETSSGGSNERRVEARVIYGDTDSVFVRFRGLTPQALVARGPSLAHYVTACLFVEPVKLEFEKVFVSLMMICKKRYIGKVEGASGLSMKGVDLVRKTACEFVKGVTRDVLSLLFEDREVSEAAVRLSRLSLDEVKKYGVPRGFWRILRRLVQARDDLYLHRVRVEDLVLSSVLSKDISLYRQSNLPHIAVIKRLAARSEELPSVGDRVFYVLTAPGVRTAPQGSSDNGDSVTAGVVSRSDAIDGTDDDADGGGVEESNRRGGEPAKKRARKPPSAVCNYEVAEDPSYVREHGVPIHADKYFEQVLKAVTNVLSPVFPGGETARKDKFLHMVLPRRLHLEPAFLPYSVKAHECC

Structure (SMILES)	EC50 [1, 6] [nM]	EC50 [2, 7] [nM]	EC50 [3, 8] [nM]	IC50 [4] [nM]	IC50 [5] [nM]	EC50 [2, 9] [nM]	EC50 [1, 10] [nM]	EC50 ([1]; Human alphaherpesvirus 3, MeWo, read-out: VZV Cell (EC50) MEWO 10%) [nM]	EC50 ([2]; Human alphaherpesvirus 1, Vero, read-out: HSV1 Cell (EC50) VERO 10%) [nM]	EC50 ([3]; Human betaherpesvirus 5, AD169, MRC5, read-out: HCMV Cell (EC50)) [nM]
O=C(NCc1ccc(Cl)cc1)c1cc(O[C@H]2CCN3C(=O)OC[C@@H]3C2)c(C2CC2O)cn1 (stereo partly drawn) [Compound 154]	896	662	255	11.4	36.7					
O=C(NCc1ccc(Cl)cc1)c1cc(O[C@H]2CCN3C(=O)OC[C@@H]3C2)c(/C=C/CO)cn1 [Compound 155]	251	243	204	4.71	7.37	419				
COC/C=C/c1cnc(C(=O)NCc2ccc(Cl)cc2)cc1O[C@H]1CCN2C(=O)OC[C@@H]2C1 [Compound 155b]	395	263	380	9.56	8.5	209				
Cn1cc(-c2cnc(C(=O)NCc3ccc(Cl)cc3)cc2OC2CCN3C(=O)OCC3(C)C2)cn1 (stereo not drawn) [Compound 159]			441	19.3	59.2	329	277			
N#Cc1cnc(C(=O)NCc2ccc(Cl)cc2)cc1O[C@H]1CCN2C(=O)OCC[C@@H]2C1 [Compound 164]	684	469	436	2.37	18.3					
CC(=O)N1CC[C@@H](Oc2cc(C(=O)NCc3ccc(Cl)cc3)ncc2-c2cnc(C)o2)C[C@H]1C [Compound 165]	138	122	141	6.25	5.28					
O=C(NCc1ccc(Cl)cc1)c1cc(O[C@H]2CCN3C(=O)CC[C@@H]3C2)c(-c2cnn(C(F)F)c2)cn1 [Compound 166]	241	370	565	8.58	9.49					
CC(=O)N1CCC(Oc2cc(C(=O)NCc3ccc(Cl)cc3)ncc2-c2cnn(C(F)F)c2)CC1C (stereo not drawn) [Compound 167]	679	423	198	8.55	28.6					
Cn1cc(-c2cnc(C(=O)NCc3ccc(Cl)cc3)cc2OC2CCC(C#N)CC2)cn1 (stereo not drawn) [Compound 168]			1110	67.6	104	529	590			
C[C@@H]1CN(C)CCN1c1cc(C(=O)NCc2ccc(Cl)cc2)ncc1C#N [Compound 175]	3320	3390	1220	76.9	48.2					
C[C@@H]1CN(C)CCN1c1cc(C(=O)NCc2ccc(Cl)cc2)ncc1OCC(F)(F)F [Compound 176]				115	218			1240	2180	2480
